Results taken from patent US10377744B2, “Potent soluble epdxide hydrolase inhibitors” (Eicosis, LLC, priority 2014, dated 2019).
Converted amounts (≈) assume the structure as drawn. Where two headings read alike, the source gives them in different places. Each block holds one molecule with its values, some of them ahead of it.

How the values were obtained:
[1] = Solubility in Acetate Buffer at pH 3; assay type: physicochemical; settings: for solubility: aqueous buffer, read-out: Sol (ug/mL) at pH3
[2] = Experimental logP by HPLC method; assay type: physicochemical; settings: for chromatographic logP: read-out: Exp. logP
[3] = Solubility in Phosphate Buffer at pH 7.4; assay type: physicochemical; settings: for solubility compared to sEH inhibitors with hydrophobic alkyl group at R7: in words
PTZ induced seizure = experiment: Pentylenetetrazol (PTZ) induced seizure model; assay type: in vivo, mice
Procedure: To investigate the central nervous system penetration efficacy of sEH inhibitors a standard acute test involving the administration of pro-convulsant pentylenetetrazol (PTZ) was employed. In the subcutaneous pentylenetetrazol (PTZ) test 80 mg/kg of PTZ is administered by subcutaneous route, time to onset of first clonic seizure (clonus), time to tonic hind limb extension and lethality (tonus) are monitored for a duration of 30 min. Inhibitors of sEH were completely dissolved using PEG400 as a vehicle to give clear solutions. Inhibitors or vehicle were administered by intraperitoneal route 1 h prior to pro-convulsant at a single discriminating dose based on earlier data. This dose of PTZ produces 100% lethality within 30 min upon administration.
PTZ is a chemical which induces seizures. This assay is considered highly translatable from mice to humans.

[4] = pH titration of solubility; assay type: physicochemical; settings: FIG. 9
human sEH [5] = molecular target: T1, human sEH (Homo sapiens (Human), UniProt P34913); experiment: FRET-displacement assay (Ki); assay type: binding; settings: for Ki: affinity purified recombinant human sEH, FRET-displacement
T1 sequence (P34913 whole entry): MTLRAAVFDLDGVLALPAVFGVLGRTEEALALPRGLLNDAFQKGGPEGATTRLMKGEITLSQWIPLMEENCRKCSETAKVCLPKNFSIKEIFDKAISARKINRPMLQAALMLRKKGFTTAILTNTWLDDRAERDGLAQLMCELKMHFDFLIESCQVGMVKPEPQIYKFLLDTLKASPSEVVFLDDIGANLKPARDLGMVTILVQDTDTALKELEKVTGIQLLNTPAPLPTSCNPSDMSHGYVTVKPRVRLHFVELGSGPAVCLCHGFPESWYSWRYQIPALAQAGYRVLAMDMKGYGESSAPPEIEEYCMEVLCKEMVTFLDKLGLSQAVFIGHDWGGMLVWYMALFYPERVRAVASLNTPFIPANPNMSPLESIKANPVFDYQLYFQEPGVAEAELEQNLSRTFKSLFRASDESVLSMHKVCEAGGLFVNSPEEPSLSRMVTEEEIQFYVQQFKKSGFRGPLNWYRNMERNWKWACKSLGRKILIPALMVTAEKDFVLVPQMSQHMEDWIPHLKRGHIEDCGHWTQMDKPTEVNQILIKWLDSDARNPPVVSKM

human sEH [6] = molecular target: T1, human sEH; experiment: koff measurement, enzymatic t1/2 (residence time); settings: time for half of the drug to dissociate from recombinant affinity purified human sEH
[7] = HPLC method calibrated with eLogP of 4 selected inhibitors determined by shake-flask method

Molecule: 1-(3-fluoro-4-(trifluoromethyl)phenyl)-3-(1-isobutyrylpiperidin-4-yl)urea [Compound 20]
- Sol (ug/mL) at pH3 ([1]; Acetate Buffer at pH 3): 6 ug/mL

Molecule: CC(=O)N1CCC(NC(=O)NC23CC4CC(CC(C4)C2)C3)CC1 [APAU, reference compound]
- chromatographic logP [2]: 1.5
- solubility ([3]; aqueous buffer, Phosphate Buffer at pH 7.4): 277 µg/mL (≈ 867 µM)

Molecule: O=C(Nc1ccc(OC(F)(F)F)cc1)NC1CCN(C(=O)C2CCOCC2)CC1 [Compound 1, 1-(1-(tetrahydro-2H-pyran-4-carbonyl)piperidin-4-yl)-3-(4-(trifluoromethoxy)phenyl)urea]
- chromatographic logP [2]: 3.26

Molecule: Cc1occc1C(=O)N1CCC(NC(=O)Nc2ccc(OC(F)(F)F)cc2)CC1 [Compound 6, 1-(1-(2-methylfuran-3-carbonyl)piperidin-4-yl)-3-(4-(trifluoromethoxy)phenyl)urea]
- chromatographic logP [2]: 4.3

Molecule: O=C(Nc1ccc(C(F)(F)F)cc1)NC1CCN(C(=O)C2=COCC2)CC1 [Compound 12, 1-(1-(4,5-dihydrofuran-3-carbonyl)piperidin-4-yl)-3-(4-(trifluoromethyl)phenyl)urea]
- chromatographic logP [2, 7]: 3.37

Molecule: O=C(Nc1ccc(C(F)(F)F)cc1)NC1CCN(C(=O)C2CCCOC2)CC1 (stereo not shown) [Compound 15, 1-(1-(tetrahydro-2H-pyran-3-carbonyl)piperidin-4-yl)-3-(4-(trifluoromethyl)phenyl)urea]
- chromatographic logP [2, 7]: 3.41

Molecule: O=C(Nc1ccc(OC(F)(F)F)c(F)c1)NC1CCN(C(=O)C2CC2)CC1 [Compound 24, 1-(1-(cyclopropanecarbonyl)piperidin-4-yl)-3-(3-fluoro-4-(trifluoromethoxy)phenyl)urea]
- chromatographic logP [2]: 4.19

Molecule: O=C(Nc1ccc(OC(F)(F)F)c(F)c1)NC1CCN(C(=O)C2CCOCC2)CC1 [Compound 29, 1-(3-fluoro-4-(trifluoromethoxy)phenyl)-3-(1-(tetrahydro-2H-pyran-4-carbonyl)piperidin-4-yl)urea]
- chromatographic logP [2, 7]: 3.73
- onset of the tonic phase of seizure (PTZ induced seizure; 0.3 mpk, wild type Swiss mice, subcutaneous PTZ, p<0.05): delayed onset of the tonic phase of seizure
- protection from convulsions and associated lethality (PTZ induced seizure; mice, PTZ 80 mg/kg subcutaneous, inhibitor 1 h prior): protect mice from convulsions and associated lethality
- solubility compared to sEH inhibitors with hydrophobic alkyl group at R7 [3]: remarkably enhance the solubility
- solubility in pH titration [4]: increases dramatically when the pH is below 4
- solubility ([1]; Acetate Buffer at pH 3): 206 µg/mL (≈ 475 µM)

Molecule: O=C(Nc1ccc(C(F)(F)F)c(F)c1)NC1CCN(C(=O)C2(C(F)(F)F)CC2)CC1 [Compound 36, 1-(3-fluoro-4-(trifluoromethyl)phenyl)-3-(1-(1-(trifluoromethyl)cycloproropane-1-carbonyl)piperidin-4-yl)urea]
- chromatographic logP [2, 7]: 5.52
- Potency Enhancement (human sEH [5]; Ki of original inhibitor / Ki of meta-F substituted inhibitor): 1

Molecule: CC[C@H](C)C(=O)N1CCC(NC(=O)Nc2ccc(OC(F)(F)F)c(Cl)c2)CC1 [Compound 44, (S)-1-(3-chloro-4-(trifluoromethoxy)phenyl)-3-(1-(2-methylbutanoyl)piperidin-4-yl)urea]
- chromatographic logP [2, 7]: 7.7
- t1/2 (min) human sEH (human sEH [6]): 10 min

Molecule: CC(C)C(=O)N1CCC(NC(=O)Nc2ccc(C(F)(F)F)cc2)CC1 [Compound 2389, reference compound]
- Exp. logP [2]: 3.37

Molecule: CC(C)C(=O)N1CCC(NC(=O)Nc2ccc(OC(F)(F)F)cc2)CC1 [Compound 2422, reference compound]
- Exp. logP [2]: 3.56

More lines, main results first:

- Exp. logP [2]: 5.11
Molecule: 2-(1-(cyclopropanecarbonyl)piperidin-4-yl)-N-(3-fluoro-4-(trifluoromethoxy)phenyl)acetamide [Compound 48]

- chromatographic logP [2, 7]: 3.26
Molecule: O=C(Nc1ccc(C(F)(F)F)cc1)NC1CCN(C(=O)c2cc[nH]c2)CC1 [Compound 16, 1-(1-(1H-pyrrole-3-carbonyl)piperidin-4-yl)-3-(4-(trifluoromethyl)phenyl)urea]

- chromatographic logP [2, 7]: 4.16
Molecule: CC[C@H](C)C(=O)N1CCC(NC(=O)Nc2ccc(OC(F)(F)F)c(F)c2)CC1 [Compound 26, (S)-1-(3-fluoro-4-(trifluoromethoxy)phenyl)-3-(1-(2-methylbutanoyl)piperidin-4-yl)urea]

- solubility compared to sEH inhibitors with hydrophobic alkyl group at R7 [3]: remarkably enhance the solubility
- solubility ([1]; Acetate Buffer at pH 3): 522 µg/mL (≈ 1200 µM)
Molecule: O=C(Nc1ccc(OC(F)(F)F)c(F)c1)NC1CCN(C(=O)C2CCCOC2)CC1 (stereo not shown) [Compound 27]
- solubility at pH 3 compared to APAU ([1]; pH 3, in words): much better than the most soluble 1,3-disubstituted urea sEH inhibitors

- chromatographic logP [2, 7]: 5.94
Molecule: O=C(Nc1ccc(OC(F)(F)F)c(F)c1)NC1CCN(C(=O)C2(C(F)(F)F)CC2)CC1 [Compound 30]

- chromatographic logP [2, 7]: 3.76
Molecule: CCC(=O)N1CCC(NC(=O)Nc2ccc(C(F)(F)F)c(F)c2)CC1 [Compound 31, 1-(3-fluoro-4-(trifluoromethyl)phenyl)-3-(1-propionylpiperidin-4-yl)urea]

- chromatographic logP [2, 7]: 3.94
Molecule: O=C(Nc1ccc(C(F)(F)F)c(F)c1)NC1CCN(C(=O)C2CC2)CC1 [Compound 32, 1-(1-(cyclopropanecarbonyl)piperidin-4-yl)-3-(3-fluoro-4-(trifluoromethyl)phenyl)urea]

- chromatographic logP [2, 7]: 3.41
Molecule: O=C(Nc1ccc(C(F)(F)F)c(F)c1)NC1CCN(C(=O)[C@@H]2CCOC2)CC1 [Compound 33, (R)-1-(3-fluoro-4-(trifluoromethyl)phenyl)-3-(1-(tetrahydrofuran-3-carbonyl)piperidin-4-yl)urea]

- chromatographic logP [2, 7]: 3.84
Molecule: O=C(Nc1ccc(C(F)(F)F)c(F)c1)NC1CCN(C(=O)C2CCCOC2)CC1 (stereo not shown) [Compound 35, 1-(3-fluoro-4-(trifluoromethyl)phenyl)-3-(1-(tetrahydro-2H-pyran-3-carbonyl)piperidin-4-yl)urea]

- chromatographic logP [2, 7]: 3.52
Molecule: O=C(Nc1ccc(C(F)(F)F)c(F)c1)NC1CCN(C(=O)C2CCOCC2)CC1 [Compound 37, 1-(3-fluoro-4-(trifluoromethyl)phenyl)-3-(1-(tetrahydro-2H-pyran-4-carbonyl)piperidin-4-yl)urea]

- Ki (human sEH [5]): 1.95 ± 0.3 nM
Molecule: O=C(Nc1ccc(OC(F)(F)F)c(F)c1)Nc1ccc(OC(F)(F)F)c(F)c1 [Compound 38]

- Ki (human sEH [5]): 10.1 ± 1.8 nM
Molecule: O=C(Nc1ccc(OC(F)(F)F)c(F)c1)NC1CCN(C(=O)N2CCC(NC(=O)Nc3ccc(OC(F)(F)F)c(F)c3)CC2)CC1 [Compound 39]

- chromatographic logP [2, 7]: 5.94
Molecule: CCOC(=O)N1CCC(NC(=O)Nc2ccc(OC(F)(F)F)c(F)c2)CC1 [Compound 40, ethyl 4-(3-(3-fluoro-4-(trifluoromethoxy)phenyl)ureido)piperidine-1-carboxylate]

- chromatographic logP [2, 7]: 5.46
Molecule: CCOC(=O)N1CCC(NC(=O)Nc2ccc(C(F)(F)F)c(F)c2)CC1 [Compound 41, ethyl 4-(3-(3-fluoro-4-(trifluoromethyl)phenyl)ureido)piperidine-1-carboxylate]

- chromatographic logP [2, 7]: 3.93
Molecule: O=C(Nc1ccc(OC(F)(F)F)c(F)c1)NC1CCN(C(=O)N2CCOCC2)CC1 [Compound 43, 1-(3-fluoro-4-(trifluoromethoxy)phenyl)-3-(1-(morpholine-4-carbonyl)piperidin-4-yl)urea]

- chromatographic logP [2, 7]: 8.07
Molecule: CC[C@H](C)C(=O)N1CCC(NC(=O)Nc2ccc(OC(F)(F)F)c(Br)c2)CC1 [Compound 45]

- chromatographic logP [2, 7]: 9.02
Molecule: CC[C@H](C)C(=O)N1CCC(NC(=O)Nc2ccc(OC(F)(F)F)c(C(F)(F)F)c2)CC1 [Compound 46, (S)-1-(1-(2-methylbutanoyl)piperidin-4-yl)-3-(4-(trifluoromethoxy)-3-(trifluoromethyl)phenyl)urea]

- chromatographic logP [2, 7]: 10.6
Molecule: CC[C@H](C)C(=O)N1CCC(NC(=O)Nc2ccc(OC(F)(F)F)c(OC(F)(F)F)c2)CC1 [Compound 47]
